We go through 3 compounds from article PMC3433420 (PLoS ONE, 2012).

SMILES strings stand for the structures. Residues, ends and D or L forms follow the SMILES beside them.

What all share (test): In-house protein microarrays (with or without 5 mM DTT), protein named per line
Common to all, as to type: binding

Assay [1] concerns the target T1, SH2 and PTB domains (Homo sapiens, UniProt Q08881).
T1 construct: thioredoxin; made in house; host or cells: BL21(DE3)pLysS E. coli
T1 sequence (Q08881 1-620): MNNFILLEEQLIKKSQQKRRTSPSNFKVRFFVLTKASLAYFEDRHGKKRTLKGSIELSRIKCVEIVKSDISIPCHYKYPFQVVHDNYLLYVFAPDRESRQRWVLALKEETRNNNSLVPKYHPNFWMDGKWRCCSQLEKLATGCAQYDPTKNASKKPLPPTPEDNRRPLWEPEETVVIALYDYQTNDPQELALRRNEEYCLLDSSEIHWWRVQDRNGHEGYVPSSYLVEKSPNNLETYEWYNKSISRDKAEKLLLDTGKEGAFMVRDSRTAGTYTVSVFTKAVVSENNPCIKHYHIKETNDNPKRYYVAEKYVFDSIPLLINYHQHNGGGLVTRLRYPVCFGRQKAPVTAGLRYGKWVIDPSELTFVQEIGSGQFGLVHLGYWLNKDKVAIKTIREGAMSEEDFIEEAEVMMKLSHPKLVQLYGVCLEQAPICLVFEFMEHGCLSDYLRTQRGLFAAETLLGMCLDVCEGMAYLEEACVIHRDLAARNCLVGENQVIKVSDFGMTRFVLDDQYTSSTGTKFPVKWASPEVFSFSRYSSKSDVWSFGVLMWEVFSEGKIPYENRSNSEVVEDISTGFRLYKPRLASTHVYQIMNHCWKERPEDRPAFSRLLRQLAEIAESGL
The settings on record: protein ITK. A digest of the protocol:
(§1)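 KD values come from rhodamine fluorescence of duplicate spots after subtraction of a thioredoxin control. Domains were printed at ~40 µM on aldehyde slides, blocked 1 h at room temperature in pH 7.8 HEPES/KCl buffer with 5 mM DTT and 1% BSA, then peptide-probed.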

Assay [2] deals with T2, SH2 and PTB domains (Homo sapiens, UniProt P52735).
T2 construct: thioredoxin; made in house; host or cells: BL21(DE3)pLysS E. coli
T2 sequence (P52735 1-878): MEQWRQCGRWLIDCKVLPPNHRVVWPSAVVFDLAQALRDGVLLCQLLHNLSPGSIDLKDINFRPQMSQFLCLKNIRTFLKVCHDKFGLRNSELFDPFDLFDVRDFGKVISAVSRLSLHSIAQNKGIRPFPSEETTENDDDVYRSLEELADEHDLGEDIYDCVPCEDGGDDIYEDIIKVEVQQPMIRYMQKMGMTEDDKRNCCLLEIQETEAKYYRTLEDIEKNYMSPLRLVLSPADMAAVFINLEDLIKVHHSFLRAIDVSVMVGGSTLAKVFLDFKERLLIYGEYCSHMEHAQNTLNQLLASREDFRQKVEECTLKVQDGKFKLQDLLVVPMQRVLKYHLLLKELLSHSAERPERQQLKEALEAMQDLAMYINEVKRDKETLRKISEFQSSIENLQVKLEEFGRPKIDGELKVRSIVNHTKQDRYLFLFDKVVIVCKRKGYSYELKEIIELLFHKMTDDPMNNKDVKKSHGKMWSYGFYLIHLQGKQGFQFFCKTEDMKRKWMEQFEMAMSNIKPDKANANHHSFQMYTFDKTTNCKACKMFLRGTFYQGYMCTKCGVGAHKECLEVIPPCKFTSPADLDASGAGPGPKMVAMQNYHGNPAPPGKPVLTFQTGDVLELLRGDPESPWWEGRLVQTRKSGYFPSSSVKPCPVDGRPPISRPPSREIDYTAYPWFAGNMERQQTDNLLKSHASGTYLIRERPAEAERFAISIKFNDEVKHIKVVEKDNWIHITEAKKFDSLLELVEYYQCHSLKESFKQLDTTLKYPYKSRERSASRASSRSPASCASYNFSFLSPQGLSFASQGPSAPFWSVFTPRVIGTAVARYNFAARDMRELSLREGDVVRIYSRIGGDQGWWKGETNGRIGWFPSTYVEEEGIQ
The following applies: protein VAV2. The method, boiled down:
as §1

The target in assay [3] is T3, SH2 and PTB domains (Homo sapiens, UniProt P78314).
T3 construct: thioredoxin; made in house; host or cells: BL21(DE3)pLysS E. coli
T3 sequence (P78314 1-561): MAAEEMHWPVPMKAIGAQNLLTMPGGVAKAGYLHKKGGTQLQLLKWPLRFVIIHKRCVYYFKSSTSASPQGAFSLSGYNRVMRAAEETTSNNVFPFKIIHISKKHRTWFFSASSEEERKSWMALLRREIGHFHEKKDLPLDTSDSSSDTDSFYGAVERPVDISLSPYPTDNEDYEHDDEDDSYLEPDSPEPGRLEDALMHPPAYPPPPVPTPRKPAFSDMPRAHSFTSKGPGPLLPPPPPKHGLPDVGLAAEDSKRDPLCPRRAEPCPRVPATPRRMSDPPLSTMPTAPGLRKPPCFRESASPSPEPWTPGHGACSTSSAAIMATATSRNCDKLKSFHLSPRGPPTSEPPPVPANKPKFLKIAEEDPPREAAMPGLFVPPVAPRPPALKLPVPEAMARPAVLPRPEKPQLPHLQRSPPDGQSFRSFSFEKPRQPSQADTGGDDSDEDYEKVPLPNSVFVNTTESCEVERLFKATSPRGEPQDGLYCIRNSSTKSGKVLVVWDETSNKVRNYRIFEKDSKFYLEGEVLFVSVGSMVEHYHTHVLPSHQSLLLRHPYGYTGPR
The following applies: protein SH3BP2. The method, boiled down:
as §1

Where [4] appears, read: PM assay replicate # 39336, array fabrication # 39329.
The mark [5] stands for this setting: PM assay replicate # 39337, array fabrication # 39329.
The mark [6] stands for this setting: PM assay replicate # 39307, array fabrication # 39286.
[7] abbreviates: PM assay replicate # 39351, array fabrication # 39336.
Where [8] appears, read: PM assay replicate # 39352, array fabrication # 39336.

As usually defined, the Kd is the constant that tells how readily two partners part at equilibrium. High values mean a looser complex, low ones a tighter complex. Regarding `CC(C)C[C@H](NC(=O)[C@@H]1CCCN1C(=O)[C@H](C)NC(=O)[C@@H](NC(=O)[C@H](Cc1ccc(OP(=O)(O)O)cc1)NC(=O)CNC(=O)[C@H](CC(=O)O)NC(=O)[C@@H](NC(=O)[C@@H](N)CCC(=O)O)[C@@H](C)O)C(C)C)C(=O)N[C@H](C(=O)N[C@@H](CS)C(=O)N[C@@H](CO)C(=O)N[C@@H](CC(=O)O)C(=O)O)[C@@H](C)O` [ErbB2 pY1127], the “Kd” value came to 0.80 µM in assay [1] (setting [4]), 2.58 µM in assay [1] (setting [5]), 1.59 µM in assay [2] (setting [4]) and 0.17 µM in assay [2] (setting [5]).

In the case of `CCN(CC)c1ccc2c(-c3ccc(C(=O)N[C@@H](CC(N)=O)C(=O)NCC(=O)N4CCC[C@H]4C(=O)N4CCC[C@H]4C(=O)N[C@@H](CCCCN)C(=O)N[C@@H](C)C(=O)N[C@@H](CCC(=O)O)C(=O)N[C@@H](CC(=O)O)C(=O)N[C@@H](CCC(=O)O)C(=O)N[C@@H](Cc4ccc(OP(=O)(O)O)cc4)C(=O)N[C@H](C(=O)N[C@@H](CC(N)=O)C(=O)N[C@@H](CCC(=O)O)C(=O)N4CCC[C@H]4C(=O)N[C@@H](CC(C)C)C(=O)N[C@@H](Cc4ccc(O)cc4)C(=O)N[C@@H](CC(C)C)C(=O)N[C@@H](CC(=O)O)C(=O)O)C(C)C)cc3C(=O)[O-])c3ccc(=[N+](CC)CC)cc-3oc2c1` [ErbB4 1202 (18-mer)] (HELM PEPTIDE1{[CCN(CC)c1ccc2c(-c3ccc(C(=O)[*:2])cc3C(=O)[O-])c3ccc(=[N+](CC)CC)cc-3oc2c1].N.G.P.P.K.A.E.D.E.[O=C([C@H](Cc1ccc(OP(=O)(O)O)cc1)N[*:1])[*:2]].V.N.E.P.L.Y.L.D}$$$$V2.0), the “Kd” value in assay [1] (setting [6]) amounted to 0.72 µM; in assay [3] (setting [6]), 0.50 µM; in assay [3] (setting [5]), 2.06 µM; in assay [3] (setting [7]) it was 1.61 µM; in assay [3] (setting [8]), 15.93 µM; in assay [2] (setting [6]) it was 9.50 µM.

As for `CC[C@H](C)[C@H](NC(=O)[C@H](CC(N)=O)NC(=O)[C@H](CC(N)=O)NC(=O)[C@H](CCCCN)NC(=O)[C@H](CC(C)C)NC(=O)[C@H](Cc1ccc(OP(=O)(O)O)cc1)NC(=O)[C@H](CCC(=O)O)NC(=O)[C@H](C)NC(=O)[C@H](CCCCN)NC(=O)CNC(=O)[C@H](CC(C)C)NC(=O)[C@@H](NC(=O)[C@H](CC(N)=O)NC(=O)[C@H](C)NC(=O)[C@@H](N)Cc1ccccc1)[C@@H](C)O)C(=O)N[C@@H](CC(C)C)C(=O)N[C@@H](CO)C(=O)N[C@@H](CC(=O)O)C(=O)O` [ErbB4 pY1221 (18-mer)] (HELM PEPTIDE1{F.A.N.T.L.G.K.A.E.[O=C([C@H](Cc1ccc(OP(=O)(O)O)cc1)N[*:1])[*:2]].L.K.N.N.I.L.S.D}$$$$V2.0), the “Kd” value was 1.24 µM in assay [3] (setting [6]), 2.36 µM in assay [3] (setting [7]) and 10.86 µM in assay [3] (setting [8]).
